EC50 data for 56 compounds are collected here from US8048899B2, “Compounds which selectively modulate the CB2 receptor” (Boehringer Ingelheim International GmbH, priority 2008, dated 2011).

As a reminder, the EC50 is the midpoint of the concentration-response curve.

The target of assay [1] is T1, human CB1R (Homo sapiens, UniProt P21554).
T1 construct: host or cells: CHO cells
Nature of the assay: CB1R mediated modulation of cAMP synthesis. The assay is classed as cell-based. The protocol:
C. CB1R Mediated Modulation of cAMP Synthesis:
Compounds of the invention are evaluated for their CB1 agonist or inverse agonistic activity in accordance with the following experimental method.
(§1) CHO cells expressing human CB1R (Euroscreen) are plated at a density of 5000 cells per well in 384 well plates and incubated overnight at 37° C. After removing the media, the cells are treated with test compounds diluted in stimulation buffer containing 1 mM IBMX, 0.25% BSA and 10 uM Forskolin. The assay is incubated for 30 minutes at 37° C. Cells are lysed and the cAMP concentration is measured using DiscoverX-XS cAMP kit, following the manufacturer's protocol. In this setting, agonists will decrease forskolin induced production of cAMP while inverse agonists will further increase forskolin induced production of cAMP. EC50 of agonists are calculated as follows. The maximal amount of cAMP produced by forskolin compared to the level of cAMP inhibited by 1 uM CP55940 is defined as 100%. […] Data is analyzed using a four-parameter logistic model. (Model 205 of XLfit 4.0).

Assay [2] concerns the target T2, human CB2R (Homo sapiens, UniProt P34972).
T2 construct: host or cells: CHO cells
Nature of the assay: CB2R mediated modulation of cAMP synthesis. In kind it is cell-based. The protocol: B. CB2R Mediated Modulation of cAMP Synthesis:
Compounds of the invention are evaluated for their CB2 agonist or inverse agonistic activity in accordance with the following experimental method.
as §1, with “CB2R” for “CB1R”

The mark [3] stands for this setting: CHO cells expressing human CB1R, inhibition of forskolin-stimulated cAMP synthesis, read-out: CB1 EC50.
Setting [4] is: CHO cells expressing human CB2R, inhibition of forskolin-stimulated cAMP synthesis, read-out: CB2 EC50.

Like-named read-outs stand apart in the source and are kept apart here.

T1 sequence (P21554 whole entry): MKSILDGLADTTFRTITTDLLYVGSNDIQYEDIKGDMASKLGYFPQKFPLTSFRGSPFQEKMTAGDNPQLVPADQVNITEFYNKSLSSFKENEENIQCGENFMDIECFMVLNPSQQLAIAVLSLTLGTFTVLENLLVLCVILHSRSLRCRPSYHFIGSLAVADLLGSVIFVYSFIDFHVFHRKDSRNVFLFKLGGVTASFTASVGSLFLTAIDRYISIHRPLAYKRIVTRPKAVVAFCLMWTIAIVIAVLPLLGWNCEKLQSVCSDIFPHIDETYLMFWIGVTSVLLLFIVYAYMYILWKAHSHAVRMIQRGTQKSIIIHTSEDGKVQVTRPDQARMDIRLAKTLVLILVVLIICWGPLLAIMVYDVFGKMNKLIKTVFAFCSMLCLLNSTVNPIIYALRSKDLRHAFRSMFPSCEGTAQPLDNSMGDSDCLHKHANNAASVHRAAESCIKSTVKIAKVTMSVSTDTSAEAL
T2 sequence (P34972 whole entry): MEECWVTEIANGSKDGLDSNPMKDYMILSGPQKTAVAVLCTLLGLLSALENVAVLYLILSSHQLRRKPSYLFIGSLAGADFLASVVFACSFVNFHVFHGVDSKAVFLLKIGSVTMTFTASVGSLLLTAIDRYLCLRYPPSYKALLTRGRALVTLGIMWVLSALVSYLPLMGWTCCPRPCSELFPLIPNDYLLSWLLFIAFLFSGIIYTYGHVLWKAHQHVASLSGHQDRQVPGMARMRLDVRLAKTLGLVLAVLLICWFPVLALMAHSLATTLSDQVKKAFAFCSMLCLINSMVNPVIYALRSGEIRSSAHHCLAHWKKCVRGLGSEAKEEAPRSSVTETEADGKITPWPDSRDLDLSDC

In the case of `CC(C)(CO)c1cc(NC(=O)C(C)(C)S(=O)(=O)CCCC(F)(F)F)on1`, the values for the EC50 in assay [1] (setting [3]) and in assay [2] (setting [4]) were over 20 µM and 15 nM, respectively.

Take `CC(C)(C(=O)Nc1cc(C2(CO)CCCC2)no1)S(=O)(=O)C1CCOCC1`: the EC50 was over 50 µM in assay [1] and 15 nM in assay [2].

Consider `CC(C)(C(=O)Nc1cc(C2(CO)CCCC2)no1)S(=O)(=O)CC1CCC1`, for which the concentration giving a half-maximal response (EC50) in assay [1] is over 20 µM; in assay [2], 25 nM.

With `CC(C)(CO)c1cc(NC(=O)C(C)(C)S(=O)(=O)CC[C@H]2CCOC2)on1`, the EC50 in assay [1] is over 20 µM; in assay [2] it was 6.2 nM.

For the compound `CC[C@H](C)S(=O)(=O)C(C)(C)C(=O)Nc1nnc(-c2ccc(OC)cc2)[nH]1`, the values for the EC50 in assay [1] and in assay [2] were over 50 µM and 47 nM, respectively.

Turning to `CC(C)(CO)c1cc(NC(=O)C(C)(C)S(=O)(=O)C2CCCC2)on1`, the EC50 in assay [1] was over 20 µM; in assay [2] it was 75 nM.

In the case of `CC(C)(C(=O)Nc1nnc(-c2ccc(O)cc2)[nH]1)S(=O)(=O)c1ccc(F)cc1`, the results for the EC50 in assay [1] and in assay [2] were over 20 µM and 4 nM, respectively.

On to `CC(C)CCS(=O)(=O)C(C)(C)C(=O)Nc1nnc(C(C)(C)CO)s1`, for which the EC50 was over 20 µM in assay [1] and 18 nM in assay [2].

In the case of `CCOCC(C)(C)c1cc(NC(=O)C(C)(C)S(=O)(=O)C2CCOCC2)on1`, the EC50 was over 20 µM in assay [1] and 3.6 nM in assay [2].

On to `COCC(C)(C)c1cc(NC(=O)C(C)(C)S(=O)(=O)CC2CCOCC2)on1`, for which the EC50 in assay [1] was over 20 µM; in assay [2], 29 nM.

In the case of `CC(C)(CO)c1cc(NC(=O)C(C)(C)S(=O)(=O)C2CCN(S(C)(=O)=O)CC2)on1`, the figures for the EC50 in assay [1] and in assay [2] were over 50 µM and 14 nM, respectively.

Take `CC(C)(C(=O)Nc1nc(-c2cccc(O)c2)n[nH]1)S(=O)(=O)CC1CC1`: the values for the EC50 in assay [1] (setting [3]) and in assay [2] (setting [4]) were over 50 µM and 283 nM, respectively.

Take `CC(C)(CO)c1cc(NC(=O)C(C)(C)S(=O)(=O)C2CCCC2)no1`: the EC50 was at least 50 µM in assay [1] (setting [3]) and 222 nM in assay [2] (setting [4]).

For `CC(C)(CO)c1cc(NC(=O)C(C)(C)S(=O)(=O)C2CCN(S(C)(=O)=O)CC2)no1`, the figures for the EC50 in assay [1] and in assay [2] were over 50 µM and 91 nM, respectively.

For `COCC(C)(C)c1cc(NC(=O)C(C)(C)S(=O)(=O)C2CCOCC2)no1`, the figures for the EC50 in assay [1] and in assay [2] were over 50 µM and 3.5 nM, respectively.

In the case of `COc1ccc(-c2nnc(NC(=O)C(C)(C)S(=O)(=O)C3CCOCC3)[nH]2)cc1`, the 50% effective concentration (EC50) is over 20 µM in assay [1] and 0.66 nM in assay [2].

With `CC(C)(CO)c1cc(NC(=O)C(C)(C)S(=O)(=O)N2CCC2)on1`, the EC50 in assay [1] (setting [3]) is over 20 µM; in assay [2] (setting [4]), 288 nM.

With `CC(C)(C(=O)Nc1cc(C2(CO)CCCC2)no1)S(=O)(=O)C1CCCC1`, the results for the EC50 in assay [1] and in assay [2] were over 20 µM and 45 nM, respectively.

In the case of `CC(C)(CO)c1cc(NC(=O)C(C)(C)S(=O)(=O)c2cccc(F)c2F)on1`, the EC50 was over 20 µM in assay [1] (setting [3]) and 172 nM in assay [2] (setting [4]).

For the compound `COCC(C)(C)c1cc(NC(=O)C(C)(C)S(=O)(=O)CC2CCOCC2)no1`, the values for the EC50 in assay [1] (setting [3]) and in assay [2] (setting [4]) were over 20 µM and 137 nM, respectively.

For `CC(C)(CO)c1cc(NC(=O)C(C)(C)S(=O)(=O)C2CCOCC2)on1`, the EC50 in assay [1] was over 50 µM; in assay [2], 11 nM.

In the case of `CC(C)(CO)c1cc(NC(=O)C(C)(C)S(=O)(=O)CCC(F)(F)F)on1`, the EC50 in assay [1] (setting [3]) was over 50 µM; in assay [2] (setting [4]), 105 nM.

As for `COc1ccc(-c2nnc(NC(=O)C(C)(C)S(=O)(=O)C[C@@H]3CCOC3)[nH]2)cc1`, the EC50 was over 50 µM in assay [1] and 240 nM in assay [2].

Turning to `COc1ccc(-c2nnc(NC(=O)C(C)(C)S(=O)(=O)N3CC[C@@H](F)C3)[nH]2)cc1`, the EC50 is over 50 µM in assay [1] and 33 nM in assay [2].

In the case of `CC(C)(C(=O)Nc1cc(C2(CO)CCCC2)no1)S(=O)(=O)CC1CCOCC1`, the EC50 in assay [1] was over 50 µM; in assay [2], 206 nM.

Turning to `CCOc1ccc(-c2n[nH]c(NC(=O)C(C)(C)S(=O)(=O)CC3CC3)n2)cc1`, the EC50 was over 50 µM in assay [1] (setting [3]) and 488 nM in assay [2] (setting [4]).

As to `CC(C)(C(=O)Nc1nc(-c2ccc(O)cc2)n[nH]1)S(=O)(=O)CC1CCC1`, the EC50 in assay [1] was over 50 µM; in assay [2], 22 nM.

As for `CC(C)(C(=O)Nc1cc(C2(CO)CC2)no1)S(=O)(=O)C1CCOCC1`, the EC50 was over 50 µM in assay [1] (setting [3]) and 117 nM in assay [2] (setting [4]).

Consider `CC(C)(CO)c1cc(NC(=O)C(C)(C)S(=O)(=O)CC[C@@H]2CCOC2)on1`, for which the EC50 in assay [1] is over 50 µM; in assay [2] it was 14 nM.

With `CC(C)(O)c1cc(NC(=O)C(C)(C)S(=O)(=O)CCCC(F)(F)F)on1`, the EC50 in assay [1] was over 20 µM; in assay [2] it was 49 nM.

Regarding `CC(C)(C(=O)Nc1nnc(-c2ccc(O)cc2)[nH]1)S(=O)(=O)CC1CC1`, the EC50 in assay [1] was over 50 µM; in assay [2] it was 34 nM.

Take `CC(C)(CO)c1cc(NC(=O)C(C)(C)S(=O)(=O)C2CCOCC2)no1`: the EC50 in assay [1] was over 50 µM; in assay [2], 33 nM.

As for `COc1ccc(-c2nnc(NC(=O)C(C)(C)S(=O)(=O)CC3(C)CCOCC3)[nH]2)cc1`, the EC50 in assay [1] (setting [3]) was over 20 µM; in assay [2] (setting [4]), 186 nM.

Regarding `CC(C)(C(=O)Nc1cc(C2(CO)CCCCC2)no1)S(=O)(=O)C1CCOCC1`, the EC50 in assay [1] was over 20 µM; in assay [2], 38 nM.

Turning to `CO[C@H]1CC[C@@H](S(=O)(=O)C(C)(C)C(=O)Nc2cc(C(C)(C)CO)no2)CC1`, the EC50 in assay [1] is over 50 µM; in assay [2], 57 nM.

`CC(C)(C(=O)Nc1nnc(-c2ccc(O)cc2F)[nH]1)S(=O)(=O)C1CCOCC1`: the values for the EC50 in assay [1] and in assay [2] were over 50 µM and 7.7 nM, respectively.

Take `COc1ccc(-c2nnc(NC(=O)C(C)(C)S(=O)(=O)CC3CC3)[nH]2)cc1`: the EC50 is over 50 µM in assay [1] and 32 nM in assay [2].

Consider `CC(C)(CO)c1cc(NC(=O)C(C)(C)S(=O)(=O)CCCC(F)(F)F)no1`, for which the EC50 was over 20 µM in assay [1] and 25 nM in assay [2].

Take `CC(C)(CO)c1cc(NC(=O)C(C)(C)S(=O)(=O)CC2CCOCC2)no1`: the EC50 was over 50 µM in assay [1] (setting [3]) and 208 nM in assay [2] (setting [4]).

For the compound `COCC(C)(C)c1cc(NC(=O)C(C)(C)S(=O)(=O)CC2CC2)no1`, the values for the EC50 in assay [1] (setting [3]) and in assay [2] (setting [4]) were over 50 µM and 121 nM, respectively.

Consider `CC(C)(O)c1cc(NC(=O)C(C)(C)S(=O)(=O)C2CCOCC2)on1`, for which the EC50 is over 50 µM in assay [1] and 88 nM in assay [2].

Consider `CC(C)(CO)c1nnc(NC(=O)C(C)(C)S(=O)(=O)C[C@H]2CCCCO2)s1`, for which the results for the EC50 in assay [1] and in assay [2] were over 50 µM and 28 nM, respectively.

Take `COc1ccc(-c2nnc(NC(=O)C(C)(C)S(=O)(=O)CC(C)C)[nH]2)cc1`: the values for the EC50 in assay [1] and in assay [2] were over 20 µM and 69 nM, respectively.

For `CC(C)CCS(=O)(=O)C(C)(C)C(=O)Nc1cc(C2(CO)CC2)no1`, the EC50 was over 20 µM in assay [1] and 14 nM in assay [2].

Consider `CC(C)(CO)c1cc(NC(=O)C(C)(C)S(=O)(=O)CC2CCOCC2)on1`, for which the values for the EC50 in assay [1] (setting [3]) and in assay [2] (setting [4]) were over 50 µM and 39 nM, respectively.

Take `CC(C)(CO)c1cc(NC(=O)C(C)(C)S(=O)(=O)c2ccc(F)cc2)on1`: the results for the EC50 in assay [1] and in assay [2] were over 20 µM and 30 nM, respectively.

Consider `CC(C)(CO)c1cc(NC(=O)C(C)(C)S(=O)(=O)CC2CCC2)no1`, for which the figures for the EC50 in assay [1] and in assay [2] were over 50 µM and 96 nM, respectively.

Turning to `CC(C)(CO)c1cc(NC(=O)C2(S(=O)(=O)C3CCOCC3)CCC2)on1`, the results for the EC50 in assay [1] (setting [3]) and in assay [2] (setting [4]) were over 50 µM and 212 nM, respectively.

Regarding `CC(C)(CO)c1cc(NC(=O)C(C)(C)S(=O)(=O)c2ccc(F)cc2)no1`, the EC50 in assay [1] was over 50 µM; in assay [2], 45 nM.

Take `COc1ccc(-c2nnc(NC(=O)C(C)(C)S(=O)(=O)N3CCC3)[nH]2)cc1`: the EC50 in assay [1] is over 20 µM; in assay [2], 32 nM.

Turning to `CC(C)(C(=O)Nc1cc(C2(CO)CC2)no1)S(=O)(=O)CCCC(F)(F)F`, the EC50 in assay [1] (setting [3]) is over 50 µM; in assay [2] (setting [4]), 247 nM.

Turning to `CCOc1ccc(-c2nnc(NC(=O)C(C)(C)S(=O)(=O)C3CCOCC3)[nH]2)cc1`, the EC50 was over 50 µM in assay [1] (setting [3]) and 208 nM in assay [2] (setting [4]).

As to `COc1ccc(-c2nnc(NC(=O)C(C)(C)S(=O)(=O)C3CCN(S(C)(=O)=O)CC3)[nH]2)cc1`, the results for the EC50 in assay [1] and in assay [2] were 29.4 µM and 16 nM, respectively.

Regarding `COCC(C)(C)c1cc(NC(=O)C(C)(C)S(=O)(=O)C2CCCC2)on1`, the EC50 in assay [1] was over 20 µM; in assay [2], 15 nM.

Regarding `COc1ccc(-c2nnc(NC(=O)C(C)(C)S(=O)(=O)C3CCCC3)[nH]2)cc1`, the results for the EC50 in assay [1] and in assay [2] were over 20 µM and 14 nM, respectively.

Consider `COc1ccc(-c2nnc(NC(=O)C(C)(C)S(=O)(=O)CC3CC3)[nH]2)c(F)c1`, for which the EC50 was over 50 µM in assay [1] and 34 nM in assay [2].
